From US8343696B2, “Colored curable composition, fluorine-containing dipyrromethene compound and tautomer thereof, and fluorine-containing dipyrromethene metal complex and tautomer thereof, and color filter using the same and method for producing the color filter” (FUJIFILM Corporation, priority 2008, dated 2013)

Key:
Format in all cases: physicochemical
[1] = Absorption spectrum in ethyl acetate solution (spectrophotometer UV-2400PC)
Method: In consideration of film thickness, the molar absorption coefficient of the specific metal complex compounds-1, -2, -3 and -4 of the invention is preferably as high as possible, and 60,000 or higher is preferable. The maximum absorption wavelength (λmax) thereof is preferably from 520 nm to 580 nm, and more preferably from 530 nm to 570 nm, in order to improve color purity. The maximum absorption wavelength and the molar absorption coefficient are determined by using a spectrophotometer UV-2400PC (manufactured by Shimadzu Corporation).
The molar absorption coefficient (ε) of each of the obtained compounds was measured in an ethyl acetate solution using a spectrophotometer (trade name: UV-2400PC; manufactured by Shimadzu Corporation). The absorbance (Abs) at 450 nm was evaluated by normalizing the absorbance at a maximum absorption wavelength (λmax) to 1.0. […] The measurement results of the absorbance (Abs value), maximum absorption wavelength (λmax), and molar absorption coefficient (ε) are shown in Table 1.
By the method similar to the reaction scheme in Synthesis Example 1 above, the exemplary compounds (dipyrromethene metal complex compounds or tautomers thereof) shown in Table 1 were synthesized. The identification of the compounds and the measurement of the maximum absorption wavelength (λmax) and the molar absorption coefficient (ε) of the compounds were performed similarly to Synthesis Example 1 above.

[2] = Storage stability of colored resist solution (precipitation after one month at room temperature); set-up: key: A: No precipitation was observed; B: Slight precipitation was observed; C: Precipitation was observed; conditions: negative-working colored resist solution, visual precipitation
Text: 9.4 g of the resist solution obtained in section 1 above and 0.35 g of the exemplary compound Ia-12 synthesized above (a compound represented by Formula (4): dipyrromethene complex compound) were mixed and dissolved, whereby a colored resist solution (a negative-working ultraviolet-sensitive colored curable composition) was obtained.
The colored resist solution was stored for one month at room temperature, and then degree of precipitation was visually observed. The storage stability was evaluated according to the following criteria.
A: No precipitation was observed
B: Slight precipitation was observed
C: Precipitation was observed

[3] = Transmittance at 450 nm of the color filter; conditions: negative-working colored resist, 1.0 μm film; transmittance at λmax normalized to 2%
Method: The colored resist solution obtained in section 3 above was applied to an undercoat layer side of the glass substrate having an undercoat layer obtained in section 2 above by a spin coater such that a film thickness was 1.0 μm. Subsequently, the film was pre-baked at 100° C. for 120 sec, whereby a monochromatic color filter was obtained.
The transmission spectrum of the color filter obtained above was measured, and the transmittance at 450 nm was evaluated according to the following criteria. The transmittance of the color filter at 450 nm was evaluated by correcting (normalizing) the transmittance at the maximum absorption wavelength of the colorant included in the color filter to 2%. A larger transmittance indicates greater transmission of blue light, which indicates favorable magenta or violet color that can be used in a blue filter.
A: Transmittance at 450 nm was 90% or more
B: Transmittance at 450 nm was 80% or more but not more than 90%
C: Transmittance at 450 nm was not more than 80%

[4] = Heat resistance of coating film (color difference ΔEab before and after heating); conditions: 100° C. for 1 hour on hot plate
Method: A glass substrate having undercoat layer formed by applying the colored resin composition obtained in section 3 above was heat-treated at 100° C. for 1 hour using a hot plate, and the color difference (ΔEab) between before and after the heating was determined by using a […] MCPD-1000 (trade name, manufactured by Otsuka Electronics Co., Ltd.). The heat resistance was evaluated according to the following criteria. A smaller AEab value indicates better heat resistance.
(§1) A: ΔEab value was less than 6
(§2) B: ΔEab value was from 6 to 10
(§3) C: ΔEab value was more than 10

[5] = Light-fastness of coating film (color difference ΔEab before and after xenon lamp irradiation); conditions: xenon lamp 20,000 luxes for 10 hours (200,000 lux·h)
Method: A glass substrate having undercoat layer formed by applying the colored resin composition obtained in section 3 above was irradiated with a xenon lamp at an intensity of 20,000 luxes for 10 hours (equivalent to 200,000 lux·h), and the color difference ΔEab between before and after the irradiation was determined. The light-fastness was evaluated according to the following criteria. A smaller ΔEab value indicates better light-fastness.
as §1, §2, §3

SMILES | maximum absorption wavelength (λmax) [1] [nm] | molar absorption coefficient (ε) [1] | Abs value at 450 nm when normalized to Abs = 1.0 at λmax [1] | Storage stability [2] | Heat resistance [4] | Light-fastness [5] | Transmittance at 450 nm [3]
CC1=C(C(=O)OC2C(C(C)(C)C)CC(C)CC2C(C)(C)C)C(NC(=O)c2cccc(C(F)(F)F)c2)=[N+]2C1=Cc1c(C)c(C(=O)OC3C(C(C)(C)C)CC(C)CC3C(C)(C)C)c(NC(=O)c3cccc(C(F)(F)F)c3)[n]1[Zn-]2[OH] (stereo not drawn) [IIa-6] | 552 | 106,300 | 0.0127 | A | A (ΔEab value was less than 6) | A (ΔEab value was less than 6) | A (Transmittance at 450 nm was 90% or more)
Cc1c(C(=O)OC2C(C(C)(C)C)CC(C)CC2C(C)(C)C)c(NC(=O)c2cc(F)cc(F)c2)[n]2c1C=C1C(c3ccccc3)=C(C#N)C(NC(=O)C(C)Sc3cc(C(=O)O)cc(C(=O)O)c3)=[N+]1[Zn-]2[OH] (stereo not drawn) [Ia-38] | 558 | 79,400 | 0.0191 | A | A (ΔEab value was less than 6) | A (ΔEab value was less than 6) | A (Transmittance at 450 nm was 90% or more)
CC1CC(C(C)(C)C)C(OC(=O)C2=C(c3ccccc3)C3=Cc4c(-c5ccccc5)c(C(=O)OC5C(C(C)(C)C)CC(C)CC5C(C)(C)C)c(NC(=O)c5cccc(C(F)(F)F)c5)[n]4[Zn-]([OH])[N+]3=C2NC(=O)c2cccc(C(F)(F)F)c2)C(C(C)(C)C)C1 (stereo not drawn) [IIb-6] | 560 | 114,000 | 0.0079 | A | A (ΔEab value was less than 6) | A (ΔEab value was less than 6) | A (Transmittance at 450 nm was 90% or more)
CC1=C(C(=O)OC2C(C(C)(C)C)CC(C)CC2C(C)(C)C)C(NC(=O)c2cc(C(F)(F)F)cc(C(F)(F)F)c2)=[N+]2C1=Cc1c(C)c(C(=O)OC3C(C(C)(C)C)CC(C)CC3C(C)(C)C)c(NC(=O)c3cc(C(F)(F)F)cc(C(F)(F)F)c3)[n]1[Zn-]2[OH] (stereo not drawn) [IIa-14] | 551 | 100,100 | 0.0114 | A | A (ΔEab value was less than 6) | A (ΔEab value was less than 6) | A (Transmittance at 450 nm was 90% or more)
CC1=C(C(=O)OC2C(C(C)(C)C)CC(C)CC2C(C)(C)C)C(NC(=O)c2ccc(C(F)(F)F)cc2F)=[N+]2C1=Cc1c(C)c(C(=O)OC3C(C(C)(C)C)CC(C)CC3C(C)(C)C)c(NC(=O)c3ccc(C(F)(F)F)cc3F)[n]1[Zn-]2[OH] (stereo not drawn) [IIa-15] | 550 | 116,700 | 0.0095 | B | A (ΔEab value was less than 6) | A (ΔEab value was less than 6) | A (Transmittance at 450 nm was 90% or more)
CC1CC(C(C)(C)C)C(OC(=O)C2=C(c3ccccc3)C3=Cc4c(-c5ccccc5)c(C(=O)OC5C(C(C)(C)C)CC(C)CC5C(C)(C)C)c(NC(=O)c5ccc(F)c(Br)c5)[n]4[Zn-]([OH])[N+]3=C2NC(=O)c2ccc(F)c(Br)c2)C(C(C)(C)C)C1 (stereo not drawn) [IIb-24] | 564 | 100,900 | 0.091 | B | A (ΔEab value was less than 6) | A (ΔEab value was less than 6) | A (Transmittance at 450 nm was 90% or more)
CC1CC(C(C)(C)C)C(OC(=O)c2c(-c3ccccc3)c3[n](c2NC(=O)c2ccc(F)c(Br)c2)[Zn-]([OH])[N+]2=C(NC(=O)C(C)Sc4cc(C(=O)O)cc(C(=O)O)c4)C(C#N)=C(c4ccccc4)C2=C3)C(C(C)(C)C)C1 (stereo not drawn) [Ib-53] | 563 | 100,500 | 0.0082 | A | A (ΔEab value was less than 6) | A (ΔEab value was less than 6) | A (Transmittance at 450 nm was 90% or more)
CC1=C(C(=O)OC2C(C(C)(C)C)CC(C)CC2C(C)(C)C)C(NC(=O)c2ccc(C(F)(F)F)cc2)=[N+]2C1=Cc1c(C)c(C(=O)OC3C(C(C)(C)C)CC(C)CC3C(C)(C)C)c(NC(=O)c3ccc(C(F)(F)F)cc3)[n]1[Zn-]2[OH] (stereo not drawn) [IIa-7] | 554 | 111,800 | 0.0089 | A | A (ΔEab value was less than 6) | A (ΔEab value was less than 6) | A (Transmittance at 450 nm was 90% or more)

Second part, led by results:

maximum absorption wavelength (λmax) [1] [nm] | molar absorption coefficient (ε) [1] | Abs value at 450 nm when normalized to Abs = 1.0 at λmax [1] | Storage stability [2] | Heat resistance [4] | Light-fastness [5] | SMILES | Transmittance at 450 nm [3]
562 | 80,500 | 0.0173 | A | A (ΔEab value was less than 6) | A (ΔEab value was less than 6) | CC1CC(C(C)(C)C)C(OC(=O)c2c(-c3ccccc3)c3[n](c2NC(=O)c2ccc(F)c(F)c2)[Zn-]([OH])[N+]2=C(NC(=O)C(C)Sc4cc(C(=O)O)cc(C(=O)O)c4)C(C#N)=C(c4ccccc4)C2=C3)C(C(C)(C)C)C1 (stereo not drawn) [Ib-35] | A (Transmittance at 450 nm was 90% or more)
559 | 93,900 | 0.0083 | A | A (ΔEab value was less than 6) | A (ΔEab value was less than 6) | CC1CC(C(C)(C)C)C(OC(=O)c2c(-c3ccccc3)c(C=C3N=C(NC(=O)CCCSc4cc(C(=O)O)cc(C(=O)O)c4)C(C#N)=C3c3ccccc3)[n]([Zn][OH])c2NC(=O)c2cc(F)cc(F)c2F)C(C(C)(C)C)C1 (stereo not drawn) [Ib-59] | A (Transmittance at 450 nm was 90% or more)
557 | 99,200 | 0.0111 | A | A (ΔEab value was less than 6) | A (ΔEab value was less than 6) | CC1CC(C(C)(C)C)C(OC(=O)c2c(-c3ccccc3)c(C=C3N=C(NC(=O)C(C)(C)C)C(C#N)=C3c3ccccc3)[n]([Zn][OH])c2NC(=O)c2c(F)c(F)c(C(=O)O)c(F)c2F)C(C(C)(C)C)C1 (stereo not drawn) [Ib-69] | A (Transmittance at 450 nm was 90% or more)
561 | 85,200 | 0.0105 | A | A (ΔEab value was less than 6) | A (ΔEab value was less than 6) | CC1CC(C(C)(C)C)C(OC(=O)c2c(-c3ccccc3)c(C=C3N=C(NC(=O)C(C)(C)C)C(C#N)=C3c3ccccc3)[n]([Zn][OH])c2NC(=O)c2cccc(C(F)(F)F)c2)C(C(C)(C)C)C1 (stereo not drawn) [Ib-14] | A (Transmittance at 450 nm was 90% or more)
